This note sets out measurements from patent US20090270394A1, “CYCLYLAMINE DERIVATIVES AS CALCIUM CHANNEL BLOCKERS” (priority 2008, published 2009).

The structures appear in SMILES notation.

For this test, the target named is T1, Human Cav2.2 channels (Homo sapiens, UniProt Q00975).
T1 construct: expressed in transfected cells
The experiment in a line: Fluorescent assay for Cav2.2 channels using potassium depolarization to initiate channel opening. In kind it is cell-based. Particulars: for inhibition at 10 µM: 10 μM compound, read-out: Cav 2.2 Activity % Inh at 10 μM; for inhibition at 30 µM: 30 μM compound, read-out: Cav 2.2 Activity % Inh at 30 μM; for IC50: 30 mM K (block of open and inactivated channels), read-out: Cav 2.2 Activity IC50 at 30 mM K. The text has this:
Human Cav2.2 channels were stably expressed in HEK293 cells along with alpha2-delta and beta subunits of voltage-gated calcium channels. An inwardly rectifying potassium channel (Kir2.3) was also expressed in these cells to allow more precise control of the cell membrane potential by extracellular potassium concentration. At low bath potassium concentration, the membrane potential is relatively negative, and is depolarized as the bath potassium concentration is raised. In this way, the bath potassium concentration can be used to regulate the voltage-dependent conformations of the channels. […] After the incubation period, Cav2.2 channel opening is triggered by addition of higher concentration of potassium (70 mM final concentration) to further depolarize the cell. The degree of state-dependent block can be estimated from the inhibitory potency of compounds after incubation in different potassium concentrations.
Calcium influx through Cav2.2 channels is determined using a calcium sensitive fluorescent dye in combination with a fluorescent plate reader. Fluorescent changes were measured with either a VIPR (Aurora Instruments) or FLIPR (Molecular Devices) plate reader.
• 1. Seed cells in Poly-D-Lysine Coated 96 or 384-well plate and keep in a 37° C.-10% CO2 incubator overnight • 2. […] Incubate in the dark at 25° C. for 60-70 min • 5. Remove dye, wash cells with 0.1 mL (96-well plate) or 0.06 mL (384-well plate) of 4, 12, 25, or 30 mM Potassium Pre-polarization Buffer (PPB) • 6. […] Incubate in the dark at 25° C. for 30 min • 8. Read cell plate on VIPR instrument, Excitation=480 nm, Emission=535 nm • 9. With VIPR continuously reading, add 0.1 mL (96-well plate) or 0.03 mL (384-well plate) of Depolarization Buffer (DB), which is 2× the final assay concentration, to the cell plate.

T1 sequence (Q00975 whole entry): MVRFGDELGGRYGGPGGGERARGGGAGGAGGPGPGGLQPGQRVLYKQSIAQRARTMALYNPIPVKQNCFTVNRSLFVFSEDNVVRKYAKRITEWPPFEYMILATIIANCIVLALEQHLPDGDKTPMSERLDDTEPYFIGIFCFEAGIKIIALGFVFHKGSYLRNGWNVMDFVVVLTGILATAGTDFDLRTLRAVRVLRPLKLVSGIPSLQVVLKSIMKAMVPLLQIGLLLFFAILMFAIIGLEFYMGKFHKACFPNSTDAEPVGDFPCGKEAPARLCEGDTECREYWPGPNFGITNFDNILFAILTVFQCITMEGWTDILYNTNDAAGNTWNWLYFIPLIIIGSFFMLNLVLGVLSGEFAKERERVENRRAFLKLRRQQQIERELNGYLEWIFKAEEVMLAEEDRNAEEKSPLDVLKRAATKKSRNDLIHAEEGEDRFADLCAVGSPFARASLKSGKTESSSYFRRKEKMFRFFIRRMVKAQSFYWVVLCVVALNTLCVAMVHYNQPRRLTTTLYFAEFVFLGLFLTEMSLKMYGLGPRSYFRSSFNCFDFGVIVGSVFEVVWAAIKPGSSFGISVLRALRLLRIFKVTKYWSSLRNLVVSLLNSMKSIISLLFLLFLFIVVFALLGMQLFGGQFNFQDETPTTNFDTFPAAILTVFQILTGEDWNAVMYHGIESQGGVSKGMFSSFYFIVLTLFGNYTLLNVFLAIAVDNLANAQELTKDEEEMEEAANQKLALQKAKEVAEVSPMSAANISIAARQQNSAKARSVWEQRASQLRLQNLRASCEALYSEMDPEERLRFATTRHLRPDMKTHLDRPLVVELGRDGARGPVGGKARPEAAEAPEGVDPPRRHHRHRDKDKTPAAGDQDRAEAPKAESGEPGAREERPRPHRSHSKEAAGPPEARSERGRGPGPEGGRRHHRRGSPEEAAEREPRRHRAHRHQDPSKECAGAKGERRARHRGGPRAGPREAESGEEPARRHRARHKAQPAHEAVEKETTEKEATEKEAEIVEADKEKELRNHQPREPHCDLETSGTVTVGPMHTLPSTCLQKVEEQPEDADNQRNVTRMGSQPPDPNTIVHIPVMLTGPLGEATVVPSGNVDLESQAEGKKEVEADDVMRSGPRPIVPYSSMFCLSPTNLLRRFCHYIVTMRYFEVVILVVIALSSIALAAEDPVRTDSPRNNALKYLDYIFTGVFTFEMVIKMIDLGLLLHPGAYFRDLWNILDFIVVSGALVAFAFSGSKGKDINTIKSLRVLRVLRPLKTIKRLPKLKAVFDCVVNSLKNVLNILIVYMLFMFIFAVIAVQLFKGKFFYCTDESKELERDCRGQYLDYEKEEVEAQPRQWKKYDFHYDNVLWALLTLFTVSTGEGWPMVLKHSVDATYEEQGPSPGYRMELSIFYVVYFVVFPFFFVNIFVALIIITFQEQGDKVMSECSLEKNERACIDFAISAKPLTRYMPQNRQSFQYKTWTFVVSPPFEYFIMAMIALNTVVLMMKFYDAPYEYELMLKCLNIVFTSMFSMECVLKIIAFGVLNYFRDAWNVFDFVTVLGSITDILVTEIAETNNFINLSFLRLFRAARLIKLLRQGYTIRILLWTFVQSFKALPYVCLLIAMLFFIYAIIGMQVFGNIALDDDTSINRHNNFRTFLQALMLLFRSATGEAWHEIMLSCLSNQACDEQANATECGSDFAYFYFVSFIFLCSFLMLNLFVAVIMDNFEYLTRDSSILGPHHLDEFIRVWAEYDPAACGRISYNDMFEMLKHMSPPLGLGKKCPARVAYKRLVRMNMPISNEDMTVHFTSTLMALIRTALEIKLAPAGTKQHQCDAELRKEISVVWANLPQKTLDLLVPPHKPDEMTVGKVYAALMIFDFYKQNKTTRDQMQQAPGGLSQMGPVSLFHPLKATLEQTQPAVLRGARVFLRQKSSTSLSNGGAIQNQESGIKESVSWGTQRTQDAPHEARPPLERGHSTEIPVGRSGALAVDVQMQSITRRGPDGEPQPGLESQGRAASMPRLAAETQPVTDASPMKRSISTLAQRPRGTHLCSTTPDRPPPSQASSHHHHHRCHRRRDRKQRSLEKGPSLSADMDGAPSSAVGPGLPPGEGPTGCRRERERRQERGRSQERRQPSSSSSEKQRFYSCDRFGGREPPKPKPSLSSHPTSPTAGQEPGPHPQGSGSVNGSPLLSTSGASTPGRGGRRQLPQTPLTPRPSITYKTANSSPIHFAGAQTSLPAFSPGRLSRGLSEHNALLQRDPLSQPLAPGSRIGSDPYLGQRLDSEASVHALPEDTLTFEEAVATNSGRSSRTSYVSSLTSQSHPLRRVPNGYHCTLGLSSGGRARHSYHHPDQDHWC
T1 sequence (P54289 25-1103 partner): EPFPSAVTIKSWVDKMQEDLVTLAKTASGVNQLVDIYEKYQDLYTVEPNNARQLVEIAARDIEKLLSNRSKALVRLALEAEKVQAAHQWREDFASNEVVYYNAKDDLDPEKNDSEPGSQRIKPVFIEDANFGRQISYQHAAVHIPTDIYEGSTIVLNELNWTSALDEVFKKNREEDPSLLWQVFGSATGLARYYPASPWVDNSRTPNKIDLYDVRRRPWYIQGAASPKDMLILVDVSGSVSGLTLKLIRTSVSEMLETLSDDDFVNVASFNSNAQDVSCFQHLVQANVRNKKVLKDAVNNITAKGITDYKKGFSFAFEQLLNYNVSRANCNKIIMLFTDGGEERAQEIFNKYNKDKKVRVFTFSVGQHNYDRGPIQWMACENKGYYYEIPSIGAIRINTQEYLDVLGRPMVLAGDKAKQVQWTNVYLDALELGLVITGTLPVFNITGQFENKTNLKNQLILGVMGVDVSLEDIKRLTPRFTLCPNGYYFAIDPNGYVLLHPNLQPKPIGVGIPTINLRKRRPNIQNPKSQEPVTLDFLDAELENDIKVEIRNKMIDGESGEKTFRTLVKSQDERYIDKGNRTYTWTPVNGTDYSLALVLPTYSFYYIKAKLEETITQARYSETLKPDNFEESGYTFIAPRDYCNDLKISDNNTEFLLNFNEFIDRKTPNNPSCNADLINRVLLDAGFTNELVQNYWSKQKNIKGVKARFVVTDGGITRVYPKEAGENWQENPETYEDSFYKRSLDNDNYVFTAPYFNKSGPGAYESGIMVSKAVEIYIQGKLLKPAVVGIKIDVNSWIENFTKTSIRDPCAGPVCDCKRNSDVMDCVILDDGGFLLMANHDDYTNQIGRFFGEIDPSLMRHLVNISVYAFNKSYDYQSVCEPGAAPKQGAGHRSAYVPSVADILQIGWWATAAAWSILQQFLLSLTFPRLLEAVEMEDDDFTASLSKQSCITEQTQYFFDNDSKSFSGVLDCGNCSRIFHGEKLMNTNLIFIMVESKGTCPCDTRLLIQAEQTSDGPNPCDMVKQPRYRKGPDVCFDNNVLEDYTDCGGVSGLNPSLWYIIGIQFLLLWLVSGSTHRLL
T1 sequence (P54284 whole entry partner): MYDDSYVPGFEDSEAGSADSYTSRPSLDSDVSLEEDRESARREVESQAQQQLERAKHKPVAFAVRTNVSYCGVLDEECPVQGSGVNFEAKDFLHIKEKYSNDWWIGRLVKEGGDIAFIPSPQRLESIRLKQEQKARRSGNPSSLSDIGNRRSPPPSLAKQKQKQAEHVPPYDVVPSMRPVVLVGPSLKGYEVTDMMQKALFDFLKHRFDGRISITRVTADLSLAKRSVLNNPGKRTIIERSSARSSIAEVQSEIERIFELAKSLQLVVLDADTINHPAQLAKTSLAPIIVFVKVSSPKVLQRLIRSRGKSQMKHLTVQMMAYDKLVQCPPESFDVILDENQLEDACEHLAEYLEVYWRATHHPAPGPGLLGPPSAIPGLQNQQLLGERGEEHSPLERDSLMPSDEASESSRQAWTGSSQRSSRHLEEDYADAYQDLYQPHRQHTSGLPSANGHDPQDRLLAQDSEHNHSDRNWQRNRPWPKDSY

As for `Cc1cc(CNC(=O)C2(NC(=O)c3cc(C(C)(C)C)c(O)c(C(C)(C)C)c3)CCCCC2)no1` [Compound 12, 3,5-di-tert-butyl-4-hydroxy-N-(1-((5-methylisoxazol-3-yl)methylcarbamoyl)cyclohexyl)benzamide], the inhibition at 10 µM came out at 98.6%, the inhibition at 30 µM stood at 101% and the IC50 was found to be 55 nM.

For the molecule `Cc1cnc(CNC(=O)C2(NC(=O)c3cc(C(C)(C)C)nc(C(C)(C)C)c3)CC2)cn1` [Compound 11, 2,6-di-tert-butyl-N-(1-((5-methylpyrazin-2-yl)methylcarbamoyl)cyclopropyl)isonicotinamide], the inhibition at 10 µM stood at 91.9%, the inhibition at 30 µM turned out to be 92.2% and the IC50 is 336 nM.

On to `CC(C)(C#N)c1cc(C(=O)NC2(C(=O)NCc3cccc(C(F)(F)F)c3)CCCCC2)cc(C(C)(C)C#N)c1` [Compound 40, 3,5-bis(2-cyanopropan-2-yl)-N-(1-(3-(trifluoromethyl)benzylcarbamoyl)cyclohexyl)benzamide], for which the inhibition at 10 µM is 80%, the inhibition at 30 µM was 77.6% and the IC50 was 367 nM.

In the case of `COc1ccc(CNC(=O)C2(NC(=O)c3cc(C(C)(C)C)c(OC)c(C(C)(C)C)c3)CCCC2)cc1` [Compound 38, 3,5-di-tert-butyl-4-methoxy-N-(1-(4-methoxybenzylcarbamoyl)cyclopentyl)benzamide], the inhibition at 10 µM is 97.8%, the inhibition at 30 µM amounted to 99% and the IC50 came to 35.9 nM.

Regarding `CC(C)(C)c1cc(C(=O)NC2(C(=O)NCc3ccccc3)CCCCC2)cc(C(C)(C)C)c1` [Compound 44, N-(1-(benzylcarbamoyl)cyclohexyl)-3,5-di-tert-butylbenzamide], the inhibition at 10 µM was found to be 92.5%, the inhibition at 30 µM came out at 97.3% and the IC50 was determined as 60.4 nM.

Take `COc1ccc(CNC(=O)C2(NC(=O)c3cc(C(C)(C)C)cc(C(C)(C)C)c3)CCCC2)cc1` [Compound 37, 3,5-di-tert-butyl-N-(1-(4-methoxybenzylcarbamoyl)cyclopentyl)benzamide]: the inhibition at 10 µM was found to be 93%, the inhibition at 30 µM was 95.8% and the half-inhibitory concentration (IC50) turned out to be 153 nM.

In the case of `COc1c(C(C)(C)C)cc(C(=O)NC2(C(=O)NCc3cc(C)n(C)n3)CCCCC2)cc1C(C)(C)C` [Compound 85, 3,5-di-tert-butyl-N-(1-((1,5-dimethyl-1H-pyrazol-3-yl)methylcarbamoyl)cyclohexyl)-4-methoxybenzamide], the inhibition at 10 µM amounted to 87.7%, the inhibition at 30 µM stood at 93.2% and the IC50 was 26.7 nM.

As to `Cc1cc(CNC(=O)C2(NC(=O)c3cc(C(C)(C)C)cc(C(C)(C)C)c3)CCCCC2)no1` [Compound 51, 3,5-di-tert-butyl-N-(1-((5-methylisoxazol-3-yl)methylcarbamoyl)cyclohexyl)benzamide], the inhibition at 10 µM is 106%, the inhibition at 30 µM worked out at 106% and the IC50 worked out at 63.5 nM.

`CC(C)(C)c1cc(C(=O)NC2(C(=O)NCc3ccccc3)CCCC2)cc(C(C)(C)C)n1` [Compound 95, N-(1-(benzylcarbamoyl)cyclopentyl)-2,6-di-tert-butylisonicotinamide]: the inhibition at 10 µM was determined as 94.6%, the inhibition at 30 µM came out at 101% and the half-inhibitory concentration (IC50) was 132 nM.

As to `CC(C)(C)NC(=O)C(C)(C)c1cc(C(=O)NC2(C(=O)NCc3ccccc3)CCCCC2)cc(C(C)(C)C(=O)NC(C)(C)C)c1` [Compound 63, 2,2′-(5-(1-(benzylcarbamoyl)cyclohexylcarbamoyl)-1,3-phenylene)bis(N-tert-butyl-2-methylpropanamide)], the inhibition at 10 µM was determined as 66.4% and the inhibition at 30 µM is 82%.

For `Cc1cc(CNC(=O)C2(NC(=O)c3cc(C(C)(C)C)c(O)c(C(C)(C)C)c3)CC2)no1` [Compound 116, 3,5-di-tert-butyl-4-hydroxy-N-(1-((5-methylisoxazol-3-yl)methylcarbamoyl)cyclopropyl)benzamide], the inhibition at 10 µM was determined as 92.5%, the inhibition at 30 µM came out at 98% and the IC50 turned out to be 943 nM.

With `CC(C)(C)c1cc(C(=O)NC2(C(=O)NCc3ccccn3)CC2)cc(C(C)(C)C)n1` [Compound 21, 2,6-di-tert-butyl-N-(1-(pyridin-2-ylmethylcarbamoyl)cyclopropyl)isonicotinamide], the inhibition at 10 µM is 97.1% and the IC50 is 143 nM.

Take `CC(C)(C)c1cc(CNC2(C(=O)NCc3cccc(C(F)(F)F)c3)CCCCC2)cc(C(C)(C)C)c1` [Compound 60, 1-(3,5-di-tert-butylbenzylamino)-N-(3-(trifluoromethyl)benzyl)cyclohexanecarboxamide]: the inhibition at 10 µM is 74.8% and the inhibition at 30 µM was determined as 85.8%.

Turning to `COc1c(C(C)(C)C)cc(C(=O)NC2(C(=O)N3CCOCC3)CCCCC2)cc1C(C)(C)C` [Compound 29, 3,5-di-tert-butyl-4-methoxy-N-(1-(morpholine-4-carbonyl)cyclohexyl)benzamide], the inhibition at 10 µM was 85.8%, the inhibition at 30 µM turned out to be 90.5% and the IC50 is 67.6 nM.

With `CN(C)c1ccccc1CNC(=O)C1(NC(=O)c2cc(C(C)(C)C)nc(C(C)(C)C)c2)CCOCC1` [Compound 26, 2,6-di-tert-butyl-N-(4-(2-(dimethylamino)benzylcarbamoyl)tetrahydro-2H-pyran-4-yl)isonicotinamide], the inhibition at 10 µM was 49%.

With `CC(C)(C)NC(=O)C(C)(C)c1cc(C(=O)NC2(C(=O)NCc3cccc(C(F)(F)F)c3)CCCCC2)cc(C(C)(C)C(=O)NC(C)(C)C)c1` [Compound 76, 2,2′-(5-(1-(3-(trifluoromethyl)benzylcarbamoyl)cyclohexylcarbamoyl)-1,3-phenylene)bis(N-tert-butyl-2-methylpropanamide)], the inhibition at 10 µM worked out at 80.5% and the inhibition at 30 µM was 87.8%.

For `CC(C)(C#N)c1ccc(C(=O)NC2(C(=O)NCc3ccccc3)CCCCC2)cc1` [Compound 122, N-(1-(benzylcarbamoyl)cyclohexyl)-4-(2-cyanopropan-2-yl)benzamide], the inhibition at 10 µM turned out to be 45.2% and the inhibition at 30 µM came out at 80.5%.

On to `Cc1cnc(CNC(=O)C2(NC(=O)c3cc(C(C)(C)C)c(O)c(C(C)(C)C)c3)CC2)cn1` [Compound 3, 3,5-di-tert-butyl-4-hydroxy-N-(1-((5-methylpyrazin-2-yl)methylcarbamoyl)cyclopropyl)benzamide], for which the inhibition at 10 µM stood at 89.8%, the inhibition at 30 µM amounted to 98.8% and the IC50 is 1620 nM.

For `CC(C)(C)c1cc(C(=O)NC2(C(=O)NCc3ccccc3)CCCCC2)cc(C(C)(C)C)c1O` [Compound 65, N-(1-(benzylcarbamoyl)cyclohexyl)-3,5-di-tert-butyl-4-hydroxybenzamide], the inhibition at 10 µM was 104%, the inhibition at 30 µM was 107% and the IC50 stood at 123 nM.

Take `COc1c(C(C)(C)C)cc(CC(=O)NC2(C(=O)NCc3cccc(C(F)(F)F)c3)CCCCC2)cc1C(C)(C)C` [Compound 15, 1-(2-(3,5-di-tert-butyl-4-methoxyphenyl)acetamido)-N-(3-(trifluoromethyl)benzyl)cyclohexanecarboxamide]: the inhibition at 10 µM stood at 48.2% and the inhibition at 30 µM came to 65.9%.

Regarding `CC(C)(C)c1cc(C(=O)NC2(C(=O)N3CCCC3)CCCCC2)cc(C(C)(C)C)n1` [Compound 66, 2,6-di-tert-butyl-N-(1-(pyrrolidine-1-carbonyl)cyclohexyl)isonicotinamide], the IC50 is 960 nM.

On to `CC(C)(C)c1cc(C(=O)NC2(C(=O)NCc3ccc(S(C)(=O)=O)cc3)CCCCC2)cc(C(C)(C)C)c1` [Compound 107, 3,5-di-tert-butyl-N-(1-(4-(methylsulfonyl)benzylcarbamoyl)cyclohexyl)benzamide], for which the IC50 was determined as 143 nM.

With `CC(C)(C)c1cc(C(=O)NC2(C(=O)NCc3ccccc3)Cc3ccccc3C2)cc(C(C)(C)C)n1` [Compound 52, N-(2-(benzylcarbamoyl)-2,3-dihydro-1H-inden-2-yl)-2,6-di-tert-butylisonicotinamide], the inhibition at 10 µM was 82.2%, the inhibition at 30 µM worked out at 91.3% and the IC50 turned out to be 893 nM.

As for `CNC(=O)C1(NC(=O)c2cc(C(C)(C)C)nc(C(C)(C)C)c2)CCCCC1` [Compound 101, 2,6-di-tert-butyl-N-(1-(methylcarbamoyl)cyclohexyl)isonicotinamide], the concentration for half-maximal inhibition (IC50) turned out to be 105 nM.

Consider `CC(C)(C)c1cc(C(=O)NC2(C(=O)O)CCCCC2)cc(C(C)(C)C)c1` [Compound 34, 1-(3,5-di-tert-butylbenzamido)cyclohexanecarboxylic acid], for which the inhibition at 10 µM came to 68.2% and the inhibition at 30 µM turned out to be 82.3%.

The term IC50 denotes the concentration that gives 50% inhibition.
